Test results taken from ChEMBL document CHEMBL4665682, “Fragment Linking Strategies for Structure-Based Drug Design” (J Med Chem, 2020).

Columns and labels:
[1] = target: T1, Glycylpeptide N-tetradecanoyltransferase 1 (Homo sapiens, UniProt P30419)
T1 sequence (P30419 whole entry): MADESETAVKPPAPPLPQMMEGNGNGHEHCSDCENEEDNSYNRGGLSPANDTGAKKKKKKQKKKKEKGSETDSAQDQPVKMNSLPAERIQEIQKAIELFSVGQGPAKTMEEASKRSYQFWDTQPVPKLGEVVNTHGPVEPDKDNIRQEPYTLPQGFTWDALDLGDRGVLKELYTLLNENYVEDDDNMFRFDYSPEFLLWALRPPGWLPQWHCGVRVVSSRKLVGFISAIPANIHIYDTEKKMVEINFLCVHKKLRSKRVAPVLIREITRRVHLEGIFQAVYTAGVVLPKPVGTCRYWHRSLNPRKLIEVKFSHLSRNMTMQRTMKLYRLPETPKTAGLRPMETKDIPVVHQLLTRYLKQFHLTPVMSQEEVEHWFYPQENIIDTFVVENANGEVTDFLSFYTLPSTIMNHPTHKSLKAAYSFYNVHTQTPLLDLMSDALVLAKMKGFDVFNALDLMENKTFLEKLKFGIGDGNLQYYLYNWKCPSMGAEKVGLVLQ
Description: Inhibition of human NMT1 by fluorescence method

[2] = Binding affinity to human E-selectin/IgG expressed in CHO-K1 cells by surface plasmon resonance
[3] = target: T2, Histone deacetylase 8 (Homo sapiens, UniProt Q9BY41); assay: Inhibition of HDAC8 (unknown origin) using acetylated lysine as substrate incubated for 20 mins by Lineweaver-Burk double-reciprocal plot analysis
T2 sequence (Q9BY41 whole entry): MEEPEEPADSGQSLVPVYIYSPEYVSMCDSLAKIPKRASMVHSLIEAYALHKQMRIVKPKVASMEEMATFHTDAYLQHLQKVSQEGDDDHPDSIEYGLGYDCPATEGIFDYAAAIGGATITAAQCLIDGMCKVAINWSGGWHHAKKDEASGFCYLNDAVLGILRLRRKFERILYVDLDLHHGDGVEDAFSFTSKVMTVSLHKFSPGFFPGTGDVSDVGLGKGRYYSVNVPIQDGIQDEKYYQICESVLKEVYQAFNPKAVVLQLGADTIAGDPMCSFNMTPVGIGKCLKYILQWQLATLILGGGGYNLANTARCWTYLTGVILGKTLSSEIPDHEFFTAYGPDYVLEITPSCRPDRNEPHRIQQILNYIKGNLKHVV

[4] = target: T3, Chitinase B (Serratia marcescens, UniProt P11797); assay: Inhibition of Serratia marcescens chitinase B
T3 sequence (P11797 whole entry): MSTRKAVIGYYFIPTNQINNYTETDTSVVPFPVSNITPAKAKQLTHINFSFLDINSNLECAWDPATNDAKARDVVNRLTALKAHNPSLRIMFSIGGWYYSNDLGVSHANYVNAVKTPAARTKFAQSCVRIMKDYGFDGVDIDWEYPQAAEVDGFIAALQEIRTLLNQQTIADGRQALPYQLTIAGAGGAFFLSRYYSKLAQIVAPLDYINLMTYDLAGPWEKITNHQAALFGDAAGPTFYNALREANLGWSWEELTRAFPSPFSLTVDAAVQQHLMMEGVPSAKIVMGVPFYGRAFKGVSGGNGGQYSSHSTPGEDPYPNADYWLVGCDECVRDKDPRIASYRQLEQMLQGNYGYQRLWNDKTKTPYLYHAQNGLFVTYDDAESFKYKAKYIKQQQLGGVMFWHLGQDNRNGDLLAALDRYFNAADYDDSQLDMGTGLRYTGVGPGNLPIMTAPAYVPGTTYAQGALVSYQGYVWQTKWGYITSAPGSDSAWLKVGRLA

[5] = Inhibition of avidin (unknown origin)
[6] = target: Bcl-2-like protein 1 (Homo sapiens, UniProt Q07817)
Description: Inhibition of FITC-labeled Bak BH3 peptide binding to His6-tagged GST-fused Bcl-xL (unknown origin) expressed in Escherichia coli BL21 preincubated for 10 mins followed by Bak BH3 peptide addition and measured after 30 mins by fluorescence polarization-based competitive binding assay

[7] = Binding affinity to 23S rRNA U1061A mutant (unknown origin) by mass spectrometry
[8] = Inhibition of human lung tryptase using Tosyl-Gly-Pro-Arg-p-nitroanilide as substrate preincubated for 5 mins followed by substrate addition and measured after 15 mins
[9] = target: CDK2/Cyclin A2 (Homo sapiens, UniProt P24941); assay: Inhibition of CDK2/Cyclin A (unknown origin) using histone H1 as substrate by scintillation counting method; format: protein-complex assay
[10] = target: T4, Heat shock protein HSP90 (Homo sapiens, UniProt P07900+P08238)
Description: Binding affinity to N-terminal human HSP90 (D9 to E236 residues) expressed in Escherichia coli BL21(DE3) by 1H-13C HSQC-NMR spectroscopy

[11] = Binding affinity to FKBP (unknown origin) by 15N-HSQC-NMR spectroscopy; set-up: species or system Homo sapiens
[12] = Inhibition of Mycobacterium tuberculosis EthR assessed as reduction in protein interaction with immobilized ethA promoter DNA by SPR assay
[13] = target: T4, Heat shock protein HSP90; assay: Inhibition of human HSP90 (D9 to E236 residues) by fluorescence spectroscopy; format: protein assay
[14] = Antagonist activity at IL-2/IL-2RA (unknown origin) assessed as reduction in IL-2/IL-2RA protein-protein interaction by scintillation proximity assay; set-up: species or system Homo sapiens
[15] = Binding affinity to His6-tagged Mycobacterium tuberculosis pantothenate synthetase expressed in Escherichia coli C41(DE3) measured over 30 mins by isothermal titration calorimetry
[16] = target: Proto-oncogene tyrosine-protein kinase Src (Homo sapiens, UniProt P12931); assay: Inhibition of c-Src (unknown origin) using biotin-KVEKIGEGTYGVVYK as substrate by ELISA
[17] = target: T5, Endothiapepsin (Cryphonectria parasitica, UniProt P11838); assay: Inhibition of Endothia parasitica endothiapepsin using Abz-Thr-Ile-Nle-p-nitro-Phe-Gln-Arg-NH2 as substrate by fluorescence method
T5 sequence (P11838 whole entry): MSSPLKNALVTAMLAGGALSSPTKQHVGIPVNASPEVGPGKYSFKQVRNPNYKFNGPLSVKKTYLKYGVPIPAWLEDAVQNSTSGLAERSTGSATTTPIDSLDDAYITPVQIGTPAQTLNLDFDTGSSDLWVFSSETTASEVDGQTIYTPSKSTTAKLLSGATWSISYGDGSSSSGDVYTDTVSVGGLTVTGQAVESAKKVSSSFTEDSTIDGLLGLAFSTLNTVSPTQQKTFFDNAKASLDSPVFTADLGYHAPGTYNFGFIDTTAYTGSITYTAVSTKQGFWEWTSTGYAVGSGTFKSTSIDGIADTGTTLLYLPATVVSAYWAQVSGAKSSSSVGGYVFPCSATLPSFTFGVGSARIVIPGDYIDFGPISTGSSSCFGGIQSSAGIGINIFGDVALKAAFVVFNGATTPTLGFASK

[18] = Binding affinity to FKBP (unknown origin) by fluorescence-based assay; set-up: species or system Homo sapiens
[19] = target: T4, Heat shock protein HSP90; assay: Displacement of biotin-labelled geldanamycin from human HSP90 (D9 to E236 residues) incubated for 3 hrs by FRET assay; format: protein assay
[20] = target: Peptidyl-prolyl cis-trans isomerase B (Homo sapiens, UniProt P23284); assay: Inhibition of C-terminal His6-tagged CypB (unknown origin) expressed in Escherichia coli C41(DE3) using Suc-Ala-Ala-Cis-Pro-Phe-pNA as substrate by spectrophotometric analysis
[21] = target: Peptidyl-prolyl cis-trans isomerase A (Homo sapiens, UniProt P62937)
[22] = Inhibition of C-terminal His6-tagged human CypD K133I mutant expressed in Escherichia coli BL21(DE3) using Suc-Ala-Ala-Cis-Pro-Phe-pNA as substrate by spectrophotometric analysis
[23] = target: T4, Heat shock protein HSP90; assay: Inhibition of HSP90 (unknown origin) by confocal fluorescence-based biochemical assay; format: protein assay

Bcl-2-like protein 1, sequence (Q07817 whole entry): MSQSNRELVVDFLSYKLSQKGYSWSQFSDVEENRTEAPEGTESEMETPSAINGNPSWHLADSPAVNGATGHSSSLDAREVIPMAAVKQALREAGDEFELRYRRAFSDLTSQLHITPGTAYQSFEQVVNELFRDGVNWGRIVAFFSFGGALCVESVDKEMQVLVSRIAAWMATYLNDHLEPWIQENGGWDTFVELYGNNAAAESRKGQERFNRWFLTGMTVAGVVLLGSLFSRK
Peptidyl-prolyl cis-trans isomerase B, sequence (P23284 whole entry): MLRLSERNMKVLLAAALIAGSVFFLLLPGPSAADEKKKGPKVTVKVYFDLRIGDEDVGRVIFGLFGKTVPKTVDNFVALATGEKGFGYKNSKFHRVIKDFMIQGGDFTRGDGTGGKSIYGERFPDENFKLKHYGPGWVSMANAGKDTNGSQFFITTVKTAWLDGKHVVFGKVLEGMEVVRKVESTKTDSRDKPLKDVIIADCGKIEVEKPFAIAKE
Peptidyl-prolyl cis-trans isomerase A, sequence (P62937 whole entry): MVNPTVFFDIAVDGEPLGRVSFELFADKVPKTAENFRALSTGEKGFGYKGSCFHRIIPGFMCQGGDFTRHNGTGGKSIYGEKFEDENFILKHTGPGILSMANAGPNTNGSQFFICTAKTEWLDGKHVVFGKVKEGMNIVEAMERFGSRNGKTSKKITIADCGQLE
Proto-oncogene tyrosine-protein kinase Src, sequence (P12931 2-536 limits assumed): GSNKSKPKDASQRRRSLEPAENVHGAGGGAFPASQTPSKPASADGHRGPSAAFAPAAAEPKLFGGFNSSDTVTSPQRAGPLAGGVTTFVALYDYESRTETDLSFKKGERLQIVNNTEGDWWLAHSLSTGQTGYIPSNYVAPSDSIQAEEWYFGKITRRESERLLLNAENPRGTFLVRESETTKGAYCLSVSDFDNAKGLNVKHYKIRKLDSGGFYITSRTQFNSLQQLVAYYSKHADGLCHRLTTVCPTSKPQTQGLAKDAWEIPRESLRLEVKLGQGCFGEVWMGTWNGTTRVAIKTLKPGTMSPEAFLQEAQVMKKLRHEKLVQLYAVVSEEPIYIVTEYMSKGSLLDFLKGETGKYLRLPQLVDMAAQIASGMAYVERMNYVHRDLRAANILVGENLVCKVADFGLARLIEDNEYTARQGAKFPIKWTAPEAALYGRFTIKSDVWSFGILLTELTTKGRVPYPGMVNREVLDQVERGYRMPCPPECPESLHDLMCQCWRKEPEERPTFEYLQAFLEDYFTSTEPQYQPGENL

SMILES: CCOC(=O)c1c(C)nc2ccccc2c1C
- IC50 [1]: > 100 µM

SMILES: C[C@@H]1O[C@@H](O[C@H]2[C@@H](O[C@@H]3O[C@H](CO)[C@H](O)[C@H](O[C@@H](CC4CCCCC4)C(=O)O)[C@H]3OC(=O)c3ccccc3)C[C@H](C(=O)NCCCc3cn(CCCn4ccc5cc([N+](=O)[O-])ccc54)nn3)C[C@@H]2C)[C@@H](O)[C@H](O)[C@@H]1O
- Kd [2]: 0.03 µM

SMILES: [N-]=[N+]=NCC12CC3CC(CC(C3)C1)C2
- IC50 [3]: > 1000 µM

SMILES: C#CCO/N=C/c1ccnc2ccccc12
- IC50 [4]: > 100 µM

SMILES: C[C@H]1CNC(=O)N1
- Ki [5]: 34 µM

SMILES: COC(=O)[C@H]1C[C@H](O[C@@H]2O[C@H](CO)[C@H](O)[C@H](O[C@@H](CC3CCCCC3)C(=O)O)[C@H]2OC(=O)c2ccccc2)[C@H](O[C@@H]2O[C@@H](C)[C@@H](O)[C@@H](O)[C@@H]2O)[C@@H](C)C1
- Kd [2]: 1.9 µM

SMILES: [N-]=[N+]=NS(=O)(=O)c1ccc(NCCSc2ccccc2)c([N+](=O)[O-])c1
- IC50 [6]: > 100 µM

SMILES: CC1(C)CCN(c2ccc(C(=O)S)cc2)CC1
- IC50 [6]: > 100 µM

SMILES: NCC[C@@H](NC(=O)c1ccco1)C(=O)N1CCNCC1
- Kd [7]: > 100 µM

SMILES: N=C(N)c1ccc(C(=O)NCc2ccc(OCCCCCOc3ccc(CNC(=O)c4ccc(C(=N)N)cc4)cc3)cc2)cc1
- Ki [8]: < 1e-05 µM

SMILES: O=C1Nc2ccc(Cl)cc2C1=O
- IC50 [9]: > 1000 µM

SMILES: O=C1OCC/C1=C\Nc1ccccc1
- Kd [10]: 150 µM

SMILES: O=C(O)c1ccc2nc(O)c(O)nc2c1
- Kd [7]: > 100 µM

SMILES: COC(=O)[C@@H]1CCCCN1C(=O)C(=O)c1cc(OC)c(OC)c(OC)c1
- Kd [11]: 2 µM

SMILES: O=C(NO)c1ccc(-c2cn(CC34CC5CC(CC(C5)C3)C4)nn2)s1
- IC50 [3]: 4 µM

SMILES: CC1(C)CCN(c2ccc(C(=O)NS(=O)(=O)c3ccc(NCCSc4ccccc4)c([N+](=O)[O-])c3)cc2)CC1
- IC50 [6]: 0.0788 µM

SMILES: O=C(CCC1CCCC1)N1CCCC1
- IC50 [12]: 280 µM

SMILES: O=C(CCc1ccccc1)N1CCCC1
- IC50 [12]: 350 µM

SMILES: NNc1ccc(S(N)(=O)=O)cc1
- IC50 [9]: > 1000 µM

SMILES: Cc1cc(C#Cc2ccccc2N/C=C2\CCOC2=O)nc(N)n1
- Ki [13]: 4 µM

SMILES: O=C(NO)c1ccc(-c2cnnn2CC23CC4CC(CC(C4)C2)C3)s1
- IC50 [3]: 0.51 µM

SMILES: CC(C)C[C@@H](NC(=N)N)C(=O)NCC(=O)N1CCC(c2cc(-c3ccc(OCc4ccc(C(=O)O)o4)c(Cl)c3Cl)nn2C)CC1
- IC50 [14]: 0.06 µM

SMILES: NCC[C@@H](NC(=O)c1ccc(-c2cccc(NC(=O)c3ccc4nc(O)c(O)nc4c3)c2)o1)C(=O)N1CCNCC1
- Kd [7]: 6.5 µM

SMILES: O=C(O)c1cc2ccccc2o1
- Kd [15]: 1000 µM

SMILES: Cc1nn(C)c(C)c1CCOc1c(-c2ccc3c(c2)c(CN(C)C)nn3C)ccc(F)c1F
- IC50 [1]: < 0.001 µM

SMILES: CCn1c2ccccc2c2cc(/C=N/OC)ccc21
- IC50 [16]: 40 µM

SMILES: C#Cc1ccc(N2CCNCC2)cc1
- IC50 [17]: 43 µM

SMILES: O=C(CCc1ccccc1)N1CC[C@@H](SS[C@@H]2CCN(C(=O)CCc3ccccc3)C2)C1
- IC50 [12]: 0.97 µM

SMILES: COc1cc(C(=O)C(=O)N2CCCC[C@H]2C(=O)OCCCc2ccc(C(=O)Nc3ccc(O)cc3)cc2O)cc(OC)c1OC
- Kd [18]: 0.049 µM

SMILES: Cc1cc(CNS(=O)(=O)c2ccc(N/C=C3\CCOC3=O)cc2)nc(N)n1
- Ki [19]: 1.9 µM

SMILES: CNC(=O)NC(=N)NCCC[C@H](NC(=O)CN=[N+]=[N-])C(=O)N(Cc1ccccc1)Cc1ccccc1
- IC50 [4]: 0.58 µM

SMILES: O=CN1CCCC1
- IC50 [20]: > 5000 µM
- IC50 [21]: > 5000 µM
- IC50 [22]: > 5000 µM

SMILES: C#Cc1ccc(C(=O)NO)s1
- IC50 [3]: 1 µM

SMILES: C[C@@H]1NC(=O)N[C@@H]1CCCCCC(=O)O
- Ki [5]: 4.1e-07 µM

SMILES: CCn1c2ccccc2c2cc(/C=N/OCCO/N=C/c3ccc(O)c(O)c3)ccc21
- IC50 [16]: 0.064 µM

SMILES: CN(C)c1ncnc2nc[nH]c12 [DIMETHYLADENINE]
- IC50 [23]: 1500 µM

SMILES: CC(C)C[C@@H](N=C(N)N)C(=O)NCC(=O)N1CCC(c2cc(-c3cccc(Cl)c3Cl)nn2C)CC1
- IC50 [14]: 3 µM

SMILES: N=C(N)c1ccccc1 [BENZAMIDINE]
- Ki [8]: 22 µM

SMILES: CCCCCC(=O)O [HEXANOATE]
- Ki [5]: 260 µM

SMILES: COC(=O)c1c(C)n[nH]c1-c1ccco1
- IC50 [23]: 1000 µM

SMILES: COc1ccc2c(ccn2CC(=O)O)c1
- Kd [15]: 500 µM

SMILES: NC(Cc1c[nH]c2ccccc12)C(=O)N/N=C/c1cccc(/C=N/NC(=O)C(N)Cc2c[nH]c3ccccc23)c1 (stereo not drawn)
- IC50 [17]: 0.054 µM

SMILES: CSc1ccccc1C1CCCN1C(=O)C(NC(=O)NCc1ccc(N)cc1)c1ccccc1 (stereo not drawn)
- IC50 [20]: 0.08 µM
- IC50 [21]: 0.1 µM
- IC50 [22]: 0.2 µM

SMILES: O=C(Nc1ccc(O)cc1)c1ccc(O)cc1
- Kd [11]: 100 µM
